# Test results published in patent US5593985A, “Cephalosporin compounds” (priority 1994, dated 1997).
# Where two headings read alike, the source gives them in different places.
# How the values were obtained:
# Assay type in all cases: cell-based
# [1] = system: Escherichia coli TEM; experiment: MIC, standard strain 10; details: 18 h, read-out: Minimal Inhibitory Concentration(MIC)
# Description: (§1) In order to illustrate antibiotic effectiveness of the compounds of the present invention, the minimal inhibitory concentrations (MIC's) of the representative compounds were determined against standard strains and compared with ceftazidime and cefpirome, which were used as control compounds.
# (§2) The MIC values were taken by employing a two-fold dilution method: that is, two-fold serial dilutions of each of the test compounds were made from initial concentration of […]; each 1.5 ml of them was dispersed in 13.5 ml of Muller Hinton agar medium to adjust to […]; the standard test strain which had the concentration of 10^7 CFU/ml was inoculated by medium;and these were incubated at 37° C. for 18 hours.
# (§3) The test used twenty kinds of standard test strains which induced urinary tract infections, respiratory organ infections, skin soft tissue infections, plasma infections, gastrointestinal infections, central nervous system infections, most of which produce β-lactamase.
# [2] = system: Streptococcus faecium 8b; experiment: MIC, standard strain 3; details: Enterococcus faecium; S. faecium 8b; two-fold dilution, Muller Hinton agar, 10^7 CFU/ml, 37° C., 18 hours; read-out: Minimal Inhibitory Concentration(MIC)
# Description: as §1, §2
# as §3, with “β-lactamase. The standard test strains used are as follows:” for “β-lactamase.”
# 3. Streptococcus faecium 8b
# [3] = system: ATCC; experiment: MIC, clinically separated strains; details: 18 h; 20 strains
# Description: as §2
# [4] = system: Methicillin Resistant; experiment: MIC, clinically separated strains; details: 18 h, 19 clinical strains; for MIC: read-out: range of MIC
# Description: as §2
# [5] = system: Enterococcus II; experiment: MIC, clinically separated strains; details: 18 h; for MIC50 / MIC90: 20 clinical strains; for MIC: read-out: range of MIC, 20 clinical strains
# Description: as §2
# [6] = system: Enterobactercloacas; experiment: MIC, clinically separated strains; details: Enterobacter cloacae, 18 h, 20 clinical strains; for MIC: read-out: range of MIC
# Description: as §2
# [7] = system: Pseudomonas II; experiment: MIC, clinically separated strains; details: 18 h; for MIC: read-out: range of MIC
# Description: as §2
# [8] = system: D Streptococcus I; experiment: MIC, clinically separated strains; details: 18 h; for MIC50 / MIC90: 20 clinical strains; for MIC: read-out: range of MIC, 20 clinical strains
# Description: as §2
# [9] = system: Enterococcus I; experiment: MIC, clinically separated strains; details: 18 h; for MIC50 / MIC90: 20 clinical strains
# Description: as §2
# [10] = system: MRSA(KAIST); experiment: MIC, clinically separated strains; details: Staphylococcus aureus, 18 h; for MIC50 / MIC90: 15 clinical strains; for MIC: read-out: range of MIC, 15 clinical strains
# Description: as §2
# [11] = system: Serratia spp; experiment: MIC, clinically separated strains; details: 18 h; for MIC50 / MIC90: 20 clinical strains; for MIC: read-out: range of MIC, 20 clinical strains
# Description: as §2
# [12] = system: Proteus mirabilis; experiment: MIC, clinically separated strains; details: 18 h; for MIC50 / MIC90: 4 clinical strains; for MIC: read-out: range of MIC, 4 clinical strains
# Description: as §2
# [13] = system: Klebsiella oxytoca; experiment: MIC, clinically separated strains; details: 18 h; for MIC50 / MIC90: 20 clinical strains; for MIC: read-out: range of MIC, 20 clinical strains
# Description: as §2
# [14] = system: Morganella morganii; experiment: MIC, clinically separated strains; details: 18 h; for MIC50 / MIC90: 5 clinical strains; for MIC: read-out: range of MIC, 5 clinical strains
# Description: as §2
# [15] = system: Streptococcus II; experiment: MIC, clinically separated strains; details: 18 h; for MIC50 / MIC90: 17 clinical strains; for MIC: read-out: range of MIC, 17 clinical strains
# Description: as §2
# [16] = system: Proteus vulgaris; experiment: MIC, clinically separated strains; details: 18 h; for MIC50 / MIC90: 5 clinical strains; for MIC: read-out: range of MIC, 5 clinical strains
# Description: as §2
# [17] = system: Escherichia coli; experiment: MIC, clinically separated strains; details: 18 h; for MIC50 / MIC90: 20 clinical strains; for MIC: read-out: range of MIC, 20 clinical strains
# Description: as §2
# [18] = system: Providencia rettgeri; experiment: MIC, clinically separated strains; details: 18 h; for MIC: read-out: range of MIC, 6 clinical strains
# Description: as §2
# [19] = system: Pseudomonas I; experiment: MIC, clinically separated strains; details: 18 h; for MIC: read-out: range of MIC
# Description: as §2
# [20] = system: Pseudomonas aeruginosa; experiment: MIC, clinically separated strains; details: 18 h; for MIC50 / MIC90: 20 clinical strains; for MIC: read-out: range of MIC, 20 clinical strains
# Description: as §2
# [21] = system: Escherichia coli DC 2; experiment: MIC, standard strain 9; details: DC2, E. coli DC 2, two-fold dilution, Muller Hinton agar, 10^7 CFU/ml, 37° C., 18 hours, read-out: Minimal Inhibitory Concentration(MIC)
# Description: as §1, §2, §3
# [22] = system: Staphylococcus aureus SG 511; experiment: MIC, standard strain 4; details: read-out: Minimal Inhibitory Concentration(MIC)
# Description: as §1, §2
# as §3, with “β-lactamase. The standard test strains used are as follows:” for “β-lactamase.”
# 4. Staphylococcus aureus SG 511
# [23] = system: Enterobacter cloacae P 99; experiment: MIC, standard strain 19; details: P99, 18 h, read-out: Minimal Inhibitory Concentration(MIC)
# Description: as §1, §2
# as §3, with “β-lactamase. The standard test strains used are as follows:” for “β-lactamase.”
# 19. Enterobacter cloacae P 99
# [24] = system: Escherichia coli 0 55; experiment: MIC, standard strain 7; details: 055, E. coli 0 55, two-fold dilution, Muller Hinton agar, 10^7 CFU/ml, 37° C., 18 hours, read-out: Minimal Inhibitory Concentration(MIC)
# Description: as §1, §2, §3
# [25] = system: Staphylococcus aureus 285; experiment: MIC, standard strain 5; details: Staphylococcus aureus; S. aureus 285; two-fold dilution, Muller Hinton agar, 10^7 CFU/ml, 37° C., 18 hours; read-out: Minimal Inhibitory Concentration(MIC)
# Description: as §1, §2
# as §3, with “β-lactamase. The standard test strains used are as follows:” for “β-lactamase.”
# 5. Staphylococcus aureus 285
# [26] = system: Klebsiella aerogenes 1552 E; experiment: MIC, standard strain 18; details: K. aerogenes 1552 E, two-fold dilution, Muller Hinton agar, 10^7 CFU/ml, 37° C., 18 hours, read-out: Minimal Inhibitory Concentration(MIC)
# Description: as §1, §2
# as §3, with “β-lactamase. The standard test strains used are as follows:” for “β-lactamase.”
# 18. Klebsiella aerogenes 1552 E
smiles,measurement,setting,value
CO/N=C(\C(=O)N[C@@H]1C(=O)N2C(C(=O)[O-])=C(C[n+]3ccc(C(N)=O)c4c3CCC4)CS[C@H]12)c1csc(N)n1 [Example 3],MIC,[1],49 µg/mL
same,MIC,[2],12500 µg/mL
same,MIC50,[3],0.098 µg/mL
same,MIC90,[3],25 µg/mL
same,MIC,[4],0.781 to 100 µg/mL
same,MIC50,[4],6.25 µg/mL
same,MIC90,[4],50 µg/mL
same,MIC50,[5],0.025 µg/mL
same,MIC90,[5],1.56 µg/mL
same,MIC,[5],0.007 to 3.12 µg/mL
same,MIC,[6],0.013 to 1.56 µg/mL
same,MIC50,[6],0.025 µg/mL
same,MIC90,[6],0.049 µg/mL
same,MIC50,[7],1.56 µg/mL
same,MIC90,[7],6.25 µg/mL
same,MIC,[7],0.781 to 12.5 µg/mL
same,MIC50,[8],12.5 µg/mL
same,MIC90,[8],25 µg/mL
same,MIC,[8],12.5 to 100 µg/mL
same,MIC50,[9],0.025 µg/mL
same,MIC90,[9],0.049 µg/mL
same,MIC,"[9]; read-out: range of MIC, 20 clinical strains",0.013 to 0.195 µg/mL
same,MIC50,[10],6.25 µg/mL
same,MIC90,[10],50 µg/mL
same,MIC,[10],0.781 to 100 µg/mL
same,MIC50,[11],0.025 µg/mL
same,MIC90,[11],0.049 µg/mL
same,MIC,[11],0.025 to 0.049 µg/mL
same,MIC50,[12],0.013 µg/mL
same,MIC90,[12],0.049 µg/mL
same,MIC,[12],0.007 to 0.049 µg/mL
same,MIC50,[13],0.013 µg/mL
same,MIC90,[13],0.098 µg/mL
same,MIC,[13],0.007 to 0.391 µg/mL
same,MIC50,[14],0.013 µg/mL
same,MIC90,[14],0.025 µg/mL
same,MIC,[14],0.013 to 0.025 µg/mL
same,MIC50,[15],0.004 µg/mL
same,MIC90,[15],0.007 µg/mL
same,MIC,[15],0.002 to 0.007 µg/mL
same,MIC50,[16],0.025 µg/mL
same,MIC90,[16],0.098 µg/mL
same,MIC,[16],0.025 to 0.098 µg/mL
same,MIC50,[17],0.025 µg/mL
same,MIC90,[17],0.049 µg/mL
same,MIC,[17],0.025 to 0.391 µg/mL
same,MIC50,[18]; 6 clinical strains,0.013 µg/mL
same,MIC90,[18]; 6 clinical strains,0.049 µg/mL
same,MIC,[18],0.004 to 0.098 µg/mL
same,MIC50,[19],3.12 µg/mL
same,MIC90,[19],6.25 µg/mL
same,MIC,[19],0.781 to 12.5 µg/mL
same,MIC50,[20],3.12 µg/mL
same,MIC90,[20],6.25 µg/mL
same,MIC,[20],0.781 to 12.5 µg/mL
same,MIC,[21],25 µg/mL
same,MIC,"[22]; SG511, 18 h",391 µg/mL
same,MIC,[23],3120 µg/mL
same,MIC,[24],31 µg/mL
same,MIC,[25],781 µg/mL
same,MIC,[26],25 µg/mL
"CO/N=C(\C(=O)N[C@@H]1C(=O)N2C(C(=O)[O-])=C(C[n+]3cccc4c3CCC4)CS[C@H]12)c1csc(N)n1 [cefpirome, reference compound]",MIC,[1],49 µg/mL
same,MIC,[2],25000 µg/mL
same,MIC50,[3],0.098 µg/mL
same,MIC90,[3],25 µg/mL
same,MIC,[4],0.781 to 100 µg/mL
same,MIC50,[4],12.5 µg/mL
same,MIC90,[4],100 µg/mL
same,MIC50,[5],0.049 µg/mL
same,MIC90,[5],1.56 µg/mL
same,MIC,[5],0.007 to 3.12 µg/mL
same,MIC,[6],0.013 to 1.56 µg/mL
same,MIC50,[6],0.025 µg/mL
same,MIC90,[6],0.098 µg/mL
same,MIC50,[7],1.56 µg/mL
same,MIC90,[7],6.25 µg/mL
same,MIC,[7],0.781 to 12.5 µg/mL
same,MIC50,[8],25 µg/mL
same,MIC90,[8],50 µg/mL
same,MIC,[8],12.5 to 100 µg/mL
same,MIC50,[9],0.025 µg/mL
same,MIC90,[9],0.098 µg/mL
same,MIC,[9]; read-out: range of MIC,0.013 to 0.195 µg/mL
same,MIC50,[10],12.5 µg/mL
same,MIC90,[10],100 µg/mL
same,MIC,[10],0.781 to 100 µg/mL
same,MIC50,[11],0.049 µg/mL
same,MIC90,[11],0.098 µg/mL
same,MIC,[11],0.025 to 0.049 µg/mL
same,MIC50,[12],0.013 µg/mL
same,MIC90,[12],0.049 µg/mL
same,MIC,[12],0.007 to 0.049 µg/mL
same,MIC50,[13],0.025 µg/mL
same,MIC90,[13],0.781 µg/mL
same,MIC,[13],0.007 to 0.391 µg/mL
same,MIC50,[14],0.013 µg/mL
same,MIC90,[14],0.025 µg/mL
same,MIC,[14],0.013 to 0.025 µg/mL
same,MIC50,[15],0.004 µg/mL
same,MIC90,[15],0.007 µg/mL
same,MIC,[15],0.002 to 0.007 µg/mL
same,MIC50,[16],0.049 µg/mL
same,MIC90,[16],0.098 µg/mL
same,MIC,[16],0.025 to 0.098 µg/mL
same,MIC50,[17],0.025 µg/mL
same,MIC90,[17],0.049 µg/mL
same,MIC,[17],0.025 to 0.391 µg/mL
same,MIC,[18],0.004 to 0.098 µg/mL
same,MIC50,[19],1.56 µg/mL
same,MIC90,[19],6.25 µg/mL
same,MIC,[19],0.781 to 12.5 µg/mL
same,MIC50,[20],3.12 µg/mL
same,MIC90,[20],12.5 µg/mL
same,MIC,[20],0.781 to 12.5 µg/mL
same,MIC,[21],49 µg/mL
same,MIC,"[22]; SG511, S. aureus SG 511, two-fold dilution, Muller Hinton agar, 10^7 CFU/ml, 37° C., 18 hours",391 µg/mL
same,MIC,[23],3120 µg/mL
same,MIC,[24],13 µg/mL
same,MIC,[25],781 µg/mL
same,MIC,[26],25 µg/mL
